Test results published in patent US6933320B2, “Combination comprising combretastatin and anticancer agents” (priority 2001, dated 2005).
“And” between values parts separate entries of the source, which are not always exact repeats. Equal entries are not always repeated. Where two headings read alike, the source gives them in different places.

What was measured:
MA13/C = format: in vivo
Method: This efficacy may be quantified, for example by the log10 cell kill, which is determined by the following formula: log10 cells killed=T-C(days)/3.32×Td in which T-C represents the time taken for the cells to grow, which is the mean time in days for the tumors of the treated group (T) to reach a predetermined value (1 g for example) and the tumors of the control group (C) to reach the same value, and Td represents the time in days needed for the volume of the tumors in the control group to double. (T. H. Corbett et al., Cancer, 40, 2660.2680 (1977); F. M. Schabel et al., Cancer Drug Development, Part B, Methods in Cancer Research, 17, 3-51, New York, Academic Press Inc. (1979)). A product is considered to be active if the log10 cell kill is greater than or equal to 0.7. A product is considered to be very active if the log10 cell kill is greater than 2.8.
(§1) The efficacy of the combinations on solid tumors were determined experimentally in the following manner:
(§2) The animals subjected to the experiment, generally mice, were subcutaneously grafted bilaterally with 30 to 60 mg of a tumor fragment on day 0. The animals bearing tumors were mixed before being subjected to the various treatments and controls. In the case of treatment of advanced tumors, tumors were allowed to develop to the desired size, and animals having insufficiently developed tumors were eliminated. The selected animals were distributed at random to undergo the treatments and controls. Animals not bearing tumors were also subjected to the same treatments as the tumor-bearing animals in order to be able to dissociate the toxic effect from the specific effect on the tumor. Chemotherapy generally began from 3 to 22 days after grafting, depending on the type of tumor, and the animals were observed every day. The different animal groups were weighed 3 or 4 times a week until the maximum weight loss was attained, and the groups were then weighed at least once a week until the end of the trial.
(§3) The tumors were measured 2 or 3 times a week until the tumor reached approximately 2 g, or until the animal died if this occurred before the tumor reached 2 g. The animals were autopsied when sacrificed.
(§4) The antitumor activity was determined in accordance with different parameters which were recorded such as dose (mg/kg), mode of administration, time of administration, cytotoxicity, toxicity and log cell kill.
In this and the following examples, RPR 258062A corresponds to the hydrochloride salt of compound IIa. The agents were administered intravenously unless otherwise specified.

C51 = experiment: In vivo evaluation on subcutaneously grafted solid tumor C51
Method: A product is considered to be active if the log10 cell kill is greater than or equal to 0.7. A product is considered to be very active if the log10 cell kill is greater than 2.8.
as §1
as §2, with “Animals not bearing tumors were also subjected to the same treatments as the tumor-bearing animals in order to be able to dissociate the toxic effect from the specific effect on the tumor. Chemotherapy generally began from 3 to 22 days after grafting, depending on the type of tumor, and the animals were observed every day.” left out
as §3, §4
The agents were administered intravenously unless otherwise specified.

[1] = Solubility in water (statement); format: physicochemical; conditions: statement in words, no method given
[2] = MA13/C tumor, single agent at HNTD, i.v., schedule days 15, 25 (vinorelbine study)
[3] = sequential combination RPR 258062A 58 mg/kg day 14 + CDDP 10 mg/kg days 15, 19, i.v.
[4] = simultaneous combination RPR 258062A 1st 116 mg/kg days 12, 16 + CDDP 10 mg/kg days 12, 16, i.v.
[5] = single agent at HNTD, RPR 258062A i.v. days 13-17 (2x/d), CPT-11 oral days 14-17
[6] = single agent at HNTD, i.v., schedule days 12, 16
[7] = MA13/C tumor, sequential combination RPR 258062A 1st 75 mg/kg day 14 + vinorelbine 2nd 32 mg/kg days 15, 25, i.v.
[8] = MA13/C tumor, single agent at HNTD, i.v., schedule days 15, 22 (doxorubicin study)
[9] = MA13/C tumor, single agent at HNTD, i.v., docetaxel days 17, 24 (* evaluated on mice that developed tumor), RPR 258062A days 17, 24 (2x/d)
[10] = MA13/C tumor, single agent at HNTD, i.v., docetaxel days 17, 24, RPR 258062A days 17, 24 (2x/d)
[11] = sequential combination CPT-11 oral 400 mg/kg days 13-16 + RPR 258062A 36 mg/kg day 17

CCC1=C[C@@H]2CN(C1)Cc1c([nH]c3ccccc13)[C@@](C(=O)OC)(c1cc3c(cc1OC)N(C)[C@H]1[C@@](O)(C(=O)OC)[C@H](OC(C)=O)[C@]4(CC)C=CCN5CC[C@]31[C@@H]54)C2 [Vinorelbine, vinorelbine, reference compound]
LcK (log cell kill) (MA13/C; [2]): 4.6 | RR CR (complete response) (MA13/C; [2]): 5/5 | RR PR (partial response) (MA13/C; [2]): 5/5 | T-C (tumor growth delay) (MA13/C; [2]): 45.5 days | TFS (tumor free survivors) (MA13/C; [2]): 0/5 | HNTD Dose (highest nontoxic dose) (MA13/C; mouse, in vivo, iv): 19.8 mg/kg

COc1ccc(/C=C\c2cc(OC)c(OC)c(OC)c2)cc1NC(=O)C(N)CO (centres unmarked) [RPR 258062A]
HNTD Dose (highest nontoxic dose) (C51; sequential combination CPT-11 oral (days 13-16) + RPR 258062A i.v. (day 17), dose of each constituent): 36 mg/kg | LcK (log cell kill) (C51; [3]): 5.9 | RR CR (complete response) (C51; [3]): 5/5 | RR PR (partial response) (C51; [3]): 5/5 | T-C (tumor growth delay) (C51; [3]): 51 days | TFS (tumor free survivors) (C51; [3]): 0/5 | HNTD Dose (highest nontoxic dose) (C51; sequential combination RPR 258062A (day 14) + CDDP (days 15, 19), i.v., dose of each constituent): 58 mg/kg | RR CR (complete response) (C51; [4]): 6/6 | RR PR (partial response) (C51; [4]): 6/6 | TFS (tumor free survivors) (C51; [4]): 6/6 | HNTD Dose (highest nontoxic dose) (C51; simultaneous combination RPR 258062A 1st (days 12, 16) + CDDP (days 12, 16), i.v., dose of each constituent): 116 mg/kg | LcK (log cell kill) (C51; [5]): 1.3 | RR CR (complete response) (C51; [5]): 0/5 | RR PR (partial response) (C51; [5]): 5/5 | T-C (tumor growth delay) (C51; [5]): 10.3 days | TFS (tumor free survivors) (C51; [5]): 0/5 | LcK (log cell kill) (C51; [6]): 1.2 | RR CR (complete response) (C51; [6]): 0/6 | RR PR (partial response) (C51; [6]): 6/6 | T-C (tumor growth delay) (C51; [6]): 10 days | TFS (tumor free survivors) (C51; [6]): 0/6 | HNTD Dose (highest nontoxic dose) (C51; single agent, RPR 258062A i.v. days 13-17 (2x/d), CPT-11 oral days 14-17): 116.5 mg/kg | HNTD Dose (highest nontoxic dose) (C51; single agent, i.v., schedule days 12, 16): 116 mg/kg | RR CR (complete response) (MA13/C; MA13/C tumor, sequential combination RPR 258062A 150 mg/kg days 16, 23 (2x/d) + docetaxel 109.6 mg/kg days 17, 24, i.v.): 6/6 | RR CR (complete response) (MA13/C; [7]): 5/5 | RR PR (partial response) (MA13/C; [7]): 5/5 | T-C (tumor growth delay) (MA13/C; [7]): 84.7 days | HNTD Dose (highest nontoxic dose) (MA13/C; MA13/C tumor, sequential combination RPR 258062A 1st (day 14) + vinorelbine 2nd (days 15, 25), i.v., dose of each constituent): 75 mg/kg | HNTD Dose (highest nontoxic dose) (MA13/C; MA13/C tumor, sequential combination RPR 258062A (days 15, 21) + doxorubicin (days 16, 22), i.v., dose of each constituent): 139.6 mg/kg | HNTD Dose (highest nontoxic dose) (MA13/C; MA13/C tumor, sequential combination RPR 258062A (days 16, 23, 2x/d) + docetaxel (days 17, 24), i.v., dose of each constituent): 150 mg/kg | LcK (log cell kill) (MA13/C; [8]): 1.3 | RR CR (complete response) (MA13/C; [8]): 0/6 | RR PR (partial response) (MA13/C; [8]): 0/6 | T-C (tumor growth delay) (MA13/C; [8]): 30.2 days | TFS (tumor free survivors) (MA13/C; [8]): 0/6 | LcK (log cell kill) (MA13/C; [2]): 0.5 | RR CR (complete response) (MA13/C; [2]): 0/5 | RR PR (partial response) (MA13/C; [2]): 0/5 | T-C (tumor growth delay) (MA13/C; [2]): 5 days | TFS (tumor free survivors) (MA13/C; [2]): 0/5 | LcK (log cell kill) (MA13/C; [9]): 1.3 | RR CR (complete response) (MA13/C; [10]): 1/6 | RR PR (partial response) (MA13/C; [10]): 1/6 | T-C (tumor growth delay) (MA13/C; [10]): 10.8 days | TFS (tumor free survivors) (MA13/C; [10]): 0/6 | HNTD Dose (highest nontoxic dose) (MA13/C; MA13/C tumor, single agent, i.v., schedule days 15, 22 (doxorubicin study)): 186.0 mg/kg | HNTD Dose (highest nontoxic dose) (MA13/C; MA13/C tumor, single agent, i.v., schedule days 15, 25 (vinorelbine study)): 150 mg/kg | HNTD Dose (highest nontoxic dose) (MA13/C; MA13/C tumor, single agent, i.v., docetaxel days 17, 24, RPR 258062A days 17, 24 (2x/d)): 242 mg/kg | RR CR (complete response) (MA13/C; mouse, in vivo): 7/7 | RR PR (partial response) (MA13/C; mouse, in vivo): 6/6 and 7/7 | T-C (tumor growth delay) (MA13/C; mouse, in vivo): 74.8 days and 80.6 days | TFS (tumor free survivors) (MA13/C; mouse, in vivo): 2/5 and 4/6 and 2/7

COc1ccc(/C=C\c2cc(OC)c(OC)c(OC)c2)cc1NC(=O)C(N)CO (centres unmarked) [IIa]
Solubility in water [1]: soluble in water

CCc1c2c(nc3ccc(OC(=O)N4CCC(N5CCCCC5)CC4)cc13)-c1cc3c(c(=O)n1C2)COC(=O)[C@]3(O)CC [CPT-11, reference compound]
LcK (log cell kill) (C51; [11]): 1.9 | RR CR (complete response) (C51; [11]): 3/5 | RR PR (partial response) (C51; [11]): 5/5 | T-C (tumor growth delay) (C51; [11]): 15.1 days | TFS (tumor free survivors) (C51; [11]): 0/5 | LcK (log cell kill) (C51; [5]): 1.1 | RR CR (complete response) (C51; [5]): 0/5 | RR PR (partial response) (C51; [5]): 0/5 | T-C (tumor growth delay) (C51; [5]): 8.7 days | TFS (tumor free survivors) (C51; [5]): 0/5

N.N.[Cl][Pt][Cl] [CDDP, cisplatinum, reference compound]
LcK (log cell kill) (C51; [6]): 1.9 | RR CR (complete response) (C51; [6]): 0/6 | RR PR (partial response) (C51; [6]): 5/6 | T-C (tumor growth delay) (C51; [6]): 16.5 days | TFS (tumor free survivors) (C51; [6]): 0/6

COc1cccc2c1C(=O)c1c(O)c3c(c(O)c1C2=O)C[C@@](O)(C(=O)CO)C[C@@H]3O[C@H]1C[C@H](N)[C@H](O)[C@H](C)O1 [Doxorubicin, doxorubicin, reference compound]
LcK (log cell kill) (MA13/C; [8]): 4.5 | RR CR (complete response) (MA13/C; [8]): 4/6 | RR PR (partial response) (MA13/C; [8]): 4/6 | T-C (tumor growth delay) (MA13/C; [8]): 53.5 days | TFS (tumor free survivors) (MA13/C; [8]): 0/6 | HNTD Dose (highest nontoxic dose) (MA13/C; mouse, in vivo, iv): 17.4 mg/kg

CC(=O)O[C@@]12CO[C@@H]1C[C@H](O)[C@@]1(C)C(=O)[C@H](O)C3=C(C)[C@@H](OC(=O)[C@H](O)[C@@H](NC(=O)OC(C)(C)C)c4ccccc4)C[C@@](O)([C@@H](OC(=O)c4ccccc4)[C@H]21)C3(C)C [Docetaxel, docetaxel, reference compound]
LcK (log cell kill) (MA13/C; [9]): 3.2* | RR CR (complete response) (MA13/C; [10]): 4/6 | RR PR (partial response) (MA13/C; [10]): 6/6 | T-C (tumor growth delay) (MA13/C; [10]): 26.7 days | TFS (tumor free survivors) (MA13/C; [10]): 3/6 | HNTD Dose (highest nontoxic dose) (MA13/C; mouse, in vivo, iv): 68 mg/kg
